Source: PubChem BioAssay AID1963856 (Molecular Pharmacology Branch, DTP, NCI, 2024)

Test system: LG0567-F671-PDC KRAS tumor spheroid viability
Test: Anticancer human tumor LG0567-F671-PDC patient-derived lung adenocarcinoma cell line growth inhibition [KRAS2]
Conditions: spheroids with HUVEC and MSC; for viability, T/C: stronger effect = lower value
How it was run: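 Combination screen of spheroid viability in tumor-cell co-cultures with endothelial (HUVEC) and mesenchymal stem cell stroma. Each agent was tested in half-log dilutions, topping at clinical Cmax or at 10 microM without a known Cmax.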

[1] = curve of first compound, second compound 0.1 µM
[2] = curve of first compound, second compound 0.316 µM
[3] = curve of first compound, second compound 1 µM
[4] = curve of first compound, second compound 3.16 µM
[5] = second compound 0.1 µM, first compound 0.0316 µM
[6] = second compound 0.1 µM, first compound 0.1 µM
[7] = second compound 0.1 µM, first compound 0.316 µM
[8] = second compound 0.1 µM, first compound 1 µM
[9] = second compound 0.1 µM, first compound 3.16 µM
[10] = second compound 0.1 µM, first compound 10 µM
[11] = second compound 0.316 µM, first compound 0.0316 µM
[12] = second compound 0.316 µM, first compound 0.1 µM
[13] = second compound 0.316 µM, first compound 0.316 µM
[14] = second compound 0.316 µM, first compound 1 µM
[15] = second compound 0.316 µM, first compound 3.16 µM
[16] = second compound 0.316 µM, first compound 10 µM
[17] = second compound 1 µM, first compound 0.0316 µM
[18] = second compound 1 µM, first compound 0.1 µM
[19] = second compound 1 µM, first compound 0.316 µM
[20] = second compound 1 µM, first compound 1 µM
[21] = second compound 1 µM, first compound 3.16 µM
[22] = second compound 1 µM, first compound 10 µM
[23] = second compound 3.16 µM, first compound 0.0316 µM
[24] = second compound 3.16 µM, first compound 0.1 µM
[25] = second compound 3.16 µM, first compound 0.316 µM
[26] = second compound 3.16 µM, first compound 1 µM
[27] = second compound 3.16 µM, first compound 3.16 µM
[28] = second compound 3.16 µM, first compound 10 µM
[29] = curve of first compound, second compound 0.0316 µM
[30] = second compound 0.0316 µM, first compound 0.0316 µM
[31] = second compound 0.0316 µM, first compound 0.1 µM
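Further: drug exposure lasted seven days after spheroids formed for three days.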
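Wherever viability, T/C is given: 100% = DMSO vehicle control viability.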

Compound: CCNC(=O)CC1N=C(c2ccc(Cl)cc2)c2cc(OC)ccc2-n2c(C)nnc21 (configuration not stated) + CC1OCC2(CCN(c3cnc(Sc4ccnc(N)c4Cl)c(N)n3)CC2)C1N
- IC50 [1]: 278 nM
- IC50 [2]: 39.9 nM
- IC50 [3]: < 31.6 nM
- IC50 [4]: < 31.6 nM
- IC50 (curve of first compound, second compound 10 µM): < 31.6 nM
- viability, T/C [5]: 69.1%
- viability, T/C [6]: 71.4%
- viability, T/C [7]: 46.2%
- viability, T/C [8]: 30.9%
- viability, T/C [9]: 23.5%
- viability, T/C [10]: 23.8%
- viability, T/C [11]: 48.4%
- viability, T/C [12]: 50.9%
- viability, T/C [13]: 32%
- viability, T/C [14]: 20.2%
- viability, T/C [15]: 14.3%
- viability, T/C [16]: 14.1%
- viability, T/C [17]: 34.5%
- viability, T/C [18]: 28.7%
- viability, T/C [19]: 21.5%
- viability, T/C [20]: 11.2%
- viability, T/C [21]: 8.48%
- viability, T/C [22]: 8.48%
- viability, T/C [23]: 22.7%
- viability, T/C [24]: 18.6%
- viability, T/C [25]: 12.2%
- viability, T/C [26]: 7.87%
- viability, T/C [27]: 4.55%
- viability, T/C [28]: 4.52%
- viability, T/C (second compound 10 µM, first compound 0.0316 µM): 10.9%
- viability, T/C (second compound 10 µM, first compound 0.1 µM): 11.7%
- viability, T/C (second compound 10 µM, first compound 0.316 µM): 7.18%
- viability, T/C (second compound 10 µM, first compound 1 µM): 2.24%
- viability, T/C (second compound 10 µM, first compound 3.16 µM): 1.59%
- viability, T/C (second compound 10 µM, first compound 10 µM): 0.97%

Compound: CN(C)C/C=C/C(=O)Nc1cc2c(Nc3ccc(F)c(Cl)c3)ncnc2cc1O[C@H]1CCOC1 + C=CC(=O)N1CCN(c2nc(OCC3CCCN3C)nc3c2CCN(c2cccc4cccc(C)c24)C3)CC1CC#N
- IC50 [29]: < 0.316 nM
- IC50 [1]: < 0.316 nM
- IC50 [2]: < 0.316 nM
- IC50 [3]: < 0.316 nM
- IC50 [4]: < 0.316 nM
- viability, T/C (second compound 0.0316 µM, first compound 0.000316 µM): 39.3%
- viability, T/C (second compound 0.0316 µM, first compound 0.001 µM): 40.4%
- viability, T/C (second compound 0.0316 µM, first compound 0.00316 µM): 41.9%
- viability, T/C (second compound 0.0316 µM, first compound 0.01 µM): 29.8%
- viability, T/C [30]: 30.4%
- viability, T/C [31]: 23.5%
- viability, T/C (second compound 0.1 µM, first compound 0.000316 µM): 38.1%
- viability, T/C (second compound 0.1 µM, first compound 0.001 µM): 32%
- viability, T/C (second compound 0.1 µM, first compound 0.00316 µM): 26.5%
- viability, T/C (second compound 0.1 µM, first compound 0.01 µM): 34.5%
- viability, T/C [5]: 25.8%
- viability, T/C [6]: 18.5%
- viability, T/C (second compound 0.316 µM, first compound 0.000316 µM): 24.8%
- viability, T/C (second compound 0.316 µM, first compound 0.001 µM): 28.8%
- viability, T/C (second compound 0.316 µM, first compound 0.00316 µM): 34.4%
- viability, T/C (second compound 0.316 µM, first compound 0.01 µM): 30.4%
- viability, T/C [11]: 32.1%
- viability, T/C [12]: 20.1%
- viability, T/C (second compound 1 µM, first compound 0.000316 µM): 29.3%
- viability, T/C (second compound 1 µM, first compound 0.001 µM): 32.6%
- viability, T/C (second compound 1 µM, first compound 0.00316 µM): 25.1%
- viability, T/C (second compound 1 µM, first compound 0.01 µM): 22.2%
- viability, T/C [17]: 21.2%
- viability, T/C [18]: 19%
- viability, T/C (second compound 3.16 µM, first compound 0.000316 µM): 26.5%
- viability, T/C (second compound 3.16 µM, first compound 0.001 µM): 10.8%
- viability, T/C (second compound 3.16 µM, first compound 0.00316 µM): 15.7%
- viability, T/C (second compound 3.16 µM, first compound 0.01 µM): 6.55%
- viability, T/C [23]: 10.2%
- viability, T/C [24]: 11.3%

Compound: CC1(C)CCC(CN2CCN(c3ccc(C(=O)NS(=O)(=O)c4ccc(NCC5CCOCC5)c([N+](=O)[O-])c4)c(Oc4cnc5[nH]ccc5c4)c3)CC2)=C(c2ccc(Cl)cc2)C1
- viability, T/C (compound 0.0316 µM): 98.2% [middle of 5 runs]
- viability, T/C (compound 0.1 µM): 94.7% [middle of 5 runs]
- viability, T/C (compound 0.316 µM): 87% [middle of 5 runs]
- viability, T/C (compound 1 µM): 89.9% [middle of 5 runs]
- viability, T/C (compound 3.16 µM): 45.9% [middle of 5 runs]
- viability, T/C (compound 10 µM): 12.4% [middle of 5 runs]
- IC50 (curve of compound): 2.84 µM [middle of 5 runs]

Compound: COc1cc2nccc(Oc3ccc(NC(=O)C4(C(=O)Nc5ccc(F)cc5)CC4)cc3)c2cc1OC + C=CC(=O)N1CCN(c2nc(OCC3CCCN3C)nc3c2CCN(c2cccc4cccc(C)c24)C3)CC1CC#N
- IC50 [29]: < 31.6 nM
- IC50 [1]: < 31.6 nM
- IC50 [2]: < 31.6 nM
- IC50 [3]: < 31.6 nM
- IC50 [4]: < 31.6 nM
- viability, T/C [30]: 27%
- viability, T/C [31]: 35.9%
- viability, T/C (second compound 0.0316 µM, first compound 0.316 µM): 23.9%
- viability, T/C (second compound 0.0316 µM, first compound 1 µM): 20.4%
- viability, T/C (second compound 0.0316 µM, first compound 3.16 µM): 17.8%
- viability, T/C (second compound 0.0316 µM, first compound 10 µM): 52.5%
- viability, T/C [5]: 23.5%
- viability, T/C [6]: 22.9%
- viability, T/C [7]: 26.6%
- viability, T/C [8]: 18.4%
- viability, T/C [9]: 10.2%
- viability, T/C [10]: 45.3%
- viability, T/C [11]: 25.2%
- viability, T/C [12]: 24.8%
- viability, T/C [13]: 28.4%
- viability, T/C [14]: 17.2%
- viability, T/C [15]: 10.2%
- viability, T/C [16]: 41.3%
- viability, T/C [17]: 30.9%
- viability, T/C [18]: 27.6%
- viability, T/C [19]: 23.7%
- viability, T/C [20]: 20.9%
- viability, T/C [21]: 13.3%
- viability, T/C [22]: 33%
- viability, T/C [23]: 13.2%
- viability, T/C [24]: 18.7%
- viability, T/C [25]: 11.4%
- viability, T/C [26]: 17.6%
- viability, T/C [27]: 1.46%
- viability, T/C [28]: 1.76%
